Where “and” joins values, the source holds several entries; their conditions need not be identical. Identical values can stand only once. Like-named read-outs stand apart in the source and are kept apart here.
Tests used:
Fusarium graminearum = assay type: in vivo; settings: barley, 5 days after inoculation
Puccinia triticina = assay: in vivo preventive Puccinia triticina test (wheat); settings: 8 days after inoculation
Description: After the spray coating has been dried, the plants are sprayed with a spore suspension of Puccinia triticina.
(§1) The test is evaluated 8 days after the inoculation.

Septoria tritici = assay: in vivo preventive Septoria tritici test (wheat); settings: 21 days after inoculation
Description: After the spray coating has been dried, the plants are sprayed with a spore suspension of Septoria tritici. […] The plants are placed in the greenhouse at a temperature of approximately 15° C. and a relative atmospheric humidity of approximately 80%.
The test is evaluated 21 days after the inoculation.

[1] = tested on: Fusarium nivale (var. majus); assay: in vivo preventive Fusarium nivale (var. majus) test (wheat); settings: 5 days after inoculation
Description: After the spray coating has been dried, the plants are slightly injured by using a sandblast and afterwards they are sprayed with a conidia suspension of Fusarium nivale (var. majus). The plants are placed in the greenhouse under a translucent incubation cabinet at a temperature of approximately 10° C. and a relative atmospheric humidity of approximately 100%.
The test is evaluated 5 days after the inoculation.

Leptosphaeria nodorum = assay: in vivo preventive Leptosphaeria nodorum test (wheat); settings: 8 days after inoculation
Description: After the spray coating has been dried, the plants are sprayed with a spore suspension of Leptosphaeria nodorum. […] The plants are placed in the greenhouse at a temperature of approximately 25° C. and a relative atmospheric humidity of approximately 80%.
as §1

[2] = tested on: Blumeria graminis f.sp. hordei; assay: in vivo preventive Blumeria test (barley); settings: 7 days after inoculation
Sphaerotheca fuliginea = assay: in vivo preventive test on Sphaerotheca test (cucumbers); settings: 7 days after inoculation
Description: After the spray coating has dried on, the plants are inoculated with an aqueous spore suspension of Sphaerotheca fuliginea. The plants are then placed in a greenhouse at approximately 23° C. and a relative atmospheric humidity of approximately 70%.
(§2) The test is evaluated 7 days after the inoculation.

Botrytis cinerea = assay: in vivo preventive test on Botrytis test (beans); settings: size of lesions 2 days after inoculation
Description: Solvent: 24.5 parts by weight of acetone • 24.5 parts by weight of dimethylacetamide Emulsifier: 1 part by weight of alkylaryl polyglycol ether
After the spray coating has dried on, 2 small pieces of agar covered with growth of Botrytis cinerea are placed on each leaf. The inoculated plants are placed in a darkened chamber at 20° C. and a relative atmospheric humidity of 100%.
2 days after the inoculation, the size of the lesions on the leaves is evaluated.

Venturia inaequalis = assay: in vivo preventive test on Venturia test (apples); settings: 10 days after inoculation
Description: The plants are then placed in a greenhouse at approximately 21° C. and a relative atmospheric humidity of approximately 90%.
The test is evaluated 10 days after the inoculation.

Phakopsora pachyrhizi = assay: in vivo preventive test on Phakopsora test (soybeans); settings: 7 days after inoculation
Description: After the spray coating has dried on, the plants are inoculated with an aqueous spore suspension of the causal agent of soybean rust (Phakopsora pachyrhizi) and stay for 24 h without light in an incubation cabinet at approximately 24° C. and a relative atmospheric humidity of 95%. The plants remain in the incubation cabinet at approximately 24° C. and a relative atmospheric humidity of approximately 80% and a day/night interval of 12 h.
as §2

Alternaria solani = assay: in vivo preventive test on Alternaria test (tomatoes); settings: 3 days after inoculation
Description: After the spray coating has dried on, the plants are inoculated with an aqueous spore suspension of Alternaria solani.
The test is evaluated 3 days after the inoculation.

Uromyces appendiculatus = assay: in vivo preventive test on Uromyces test (beans); settings: 10 days after inoculation
Description: The plants are then placed in a greenhouse at approximately 21° C. and a relative atmospheric humidity of approximately 90%. The test is evaluated 10 days after the inoculation.

Pyrenophora teres = assay: in vivo preventive Pyrenophora teres test (barley); settings: 8 days after inoculation
Description: After the spray coating has been dried, the plants are sprayed with a spore suspension of Pyrenophora teres.
as §1

Compound | Efficacy in % found (Fusarium graminearum; 50 ppm a.i.) [%] | Efficacy in % found (Puccinia triticina; 25 ppm a.i.) [%] | Efficacy in % found (Septoria tritici; 25 ppm a.i.) [%] | Efficacy in % found (Septoria tritici; 50 ppm a.i.) | Efficacy in % found (Leptosphaeria nodorum; 25 ppm a.i.) [%] | Efficacy in % found (Leptosphaeria nodorum; 50 ppm a.i.) | Efficacy in % found ([2]; 25 ppm a.i.) | Efficacy in % found (Phakopsora pachyrhizi; 0.25 ppm a.i.) | Efficacy in % found (Alternaria solani; 0.5 ppm a.i.) | Efficacy in % found (Alternaria solani; 1 ppm a.i.) [%] | Efficacy in % found (Puccinia triticina; 50 ppm a.i.) | Efficacy in % found (Phakopsora pachyrhizi; 0.5 ppm a.i.) | Efficacy in % found (Leptosphaeria nodorum; 100 ppm a.i.) [%] | other results
Fc1ccc([C@]2(Cn3cncn3)O[C@H]2c2ccccc2Cl)cc1 (racemic) [1.12, epoxiconazole] | 0 | 40 | 0 | 63% and 33% | 43 | 57% | 30% |  |  |  |  |  |  | Efficacy in % found ([1]; 12.5 ppm a.i.): 13%; Efficacy in % found ([2]; 12.5 ppm a.i.): 14%
OC(Cn1cncn1)(c1ccc(F)cc1)c1ccccc1F (centres unmarked) [1.22, flutriafol] |  |  |  |  |  |  |  | 0% | 0% | 0 |  |  |  | Efficacy in % found (Sphaerotheca fuliginea; 1 ppm a.i.): 24%; Efficacy in % found (Botrytis cinerea; 0.25 ppm a.i.): 0%; Efficacy in % found (Botrytis cinerea; 0.5 ppm a.i.): 15%; Efficacy in % found (Botrytis cinerea; 1 ppm a.i.): 30%; Efficacy in % found (Venturia inaequalis; 0.25 ppm a.i.): 0%; Efficacy in % found (Venturia inaequalis; 0.5 ppm a.i.): 0%; Efficacy in % found (Venturia inaequalis; 1 ppm a.i.): 8%; Efficacy in % found (Phakopsora pachyrhizi; 1 ppm a.i.): 0%; Efficacy in % found (Alternaria solani; 0.25 ppm a.i.): 0%
CC1(C)CCC(Cc2ccc(Cl)cc2)C1(O)Cn1cncn1 (centres unmarked) [1.30, metconazole] | 14 | 20 | 17 | 33% | 0 |  | 93% and 80% |  |  |  | 10% |  |  | Efficacy in % found (Puccinia triticina; 12.5 ppm a.i.): 0%; Efficacy in % found ([2]; 50 ppm a.i.): 93%
OC(Cc1ccccc1Cl)(Cn1nc[nH]c1=S)C1(Cl)CC1 (centres unmarked) [1.41, prothioconazole] |  |  |  |  |  |  |  | 0% | 15% and 8% | 15 |  | 0% |  | Efficacy in % found (Venturia inaequalis; 1 ppm a.i.): 0%; Efficacy in % found (Uromyces appendiculatus; 0.25 ppm a.i.): 0%; Efficacy in % found (Uromyces appendiculatus; 1 ppm a.i.): 0%
CC(C)(C)C(O)(CCc1ccc(Cl)cc1)Cn1cncn1 (centres unmarked) [1.47, tebuconazole] |  |  |  |  |  |  |  | 0% | 8% and 0% |  |  | 0% |  | Efficacy in % found (Alternaria solani; 0.25 ppm a.i.): 0%; Efficacy in % found (Uromyces appendiculatus; 0.25 ppm a.i.): 0%; Efficacy in % found (Uromyces appendiculatus; 0.5 ppm a.i.): 0%; Efficacy in % found (Uromyces appendiculatus; 1 ppm a.i.): 0%
CCC1CC(C)(C)c2cccc(NC(=O)c3cccnc3C(F)F)c21 (centres unmarked) [(I-3), 2-(difluoromethyl)-N-(3-ethyl-1,1-dimethyl-2,3-dihydro-1H-inden-4-yl)nicotinamide] |  |  |  |  | 0 | 14% | 0% |  | 23% |  |  |  | 43 | Efficacy in % found (Sphaerotheca fuliginea; 0.5 ppm a.i.): 0%; Efficacy in % found (Fusarium graminearum; 25 ppm a.i.): 0%; Efficacy in % found (Venturia inaequalis; 1 ppm a.i.): 11%; Efficacy in % found (Septoria tritici; 100 ppm a.i.): 83%; Efficacy in % found (Uromyces appendiculatus; 0.25 ppm a.i.): 90%
CC[C@@H]1CC(C)(C)c2cccc(NC(=O)c3cccnc3C(F)F)c21 [(I-4), 2-(difluoromethyl)-N-[(3R)-3-ethyl-1,1-dimethyl-2,3-dihydro-1H-inden-4-yl]nicotinamide] |  |  | 75 | 75% |  | 0% |  | 33% and 65% |  | 40 |  | 75% |  | Efficacy in % found (Venturia inaequalis; 0.5 ppm a.i.): 16%; Efficacy in % found ([1]; 12.5 ppm a.i.): 13%; Efficacy in % found ([1]; 25 ppm a.i.): 13%; Efficacy in % found ([2]; 50 ppm a.i.): 0%
CCCC1CC(C)(C)c2cccc(NC(=O)c3cccnc3C(F)F)c21 (centres unmarked) [(I-5), 2-(difluoromethyl)-N-(1,1-dimethyl-3-propyl-2,3-dihydro-1H-inden-4-yl)nicotinamide] | 29 |  |  |  |  | 38% |  | 43% and 60% |  |  |  | 78% and 89% | 38 | Efficacy in % found (Fusarium graminearum; 25 ppm a.i.): 0%; Efficacy in % found (Puccinia triticina; 12.5 ppm a.i.): 30%; Efficacy in % found (Uromyces appendiculatus; 0.5 ppm a.i.): 95%
CCC[C@@H]1CC(C)(C)c2cccc(NC(=O)c3cccnc3C(F)F)c21 [(I-6), 2-(difluoromethyl)-N-[(3R)-1,1-dimethyl-3-propyl-2,3-dihydro-1H-inden-4-yl]nicotinamide] |  |  |  | 75% |  | 14% | 40% | 60% and 75% |  | 27 |  |  |  | Efficacy in % found (Alternaria solani; 0.25 ppm a.i.): 16%
cyproconazole [1.5] |  | 70 |  | 50% |  | 0% |  |  |  |  | 80% |  |  | Efficacy in % found (Septoria tritici; 100 ppm a.i.): 17%; Efficacy in % found (Leptosphaeria nodorum; 12.5 ppm a.i.): 0%; Efficacy in % found (Pyrenophora teres; 25 ppm a.i.): 25% and 22%; Efficacy in % found (Pyrenophora teres; 50 ppm a.i.): 25%; Efficacy in % found (Pyrenophora teres; 100 ppm a.i.): 0%
difenoconazole [1.7] | 0 | 20 |  | 0% | 29 | 29% and 43% |  |  |  |  | 50% |  | 13 | Efficacy in % found (Fusarium graminearum; 100 ppm a.i.): 0%; Efficacy in % found (Puccinia triticina; 12.5 ppm a.i.): 0%; Efficacy in % found ([1]; 12.5 ppm a.i.): 0%; Efficacy in % found ([2]; 50 ppm a.i.): 60% and 71% and 40%; Efficacy in % found (Pyrenophora teres; 12.5 ppm a.i.): 22%; Efficacy in % found (Pyrenophora teres; 50 ppm a.i.): 13%
propiconazole [1.40] |  | 25 | 0 | 0% |  |  | 43% and 80% |  |  |  | 0% and 10% |  | 25 | Efficacy in % found (Septoria tritici; 100 ppm a.i.): 38%; Efficacy in % found (Pyrenophora teres; 25 ppm a.i.): 22%; Efficacy in % found (Pyrenophora teres; 50 ppm a.i.): 13% and 25%; Efficacy in % found (Pyrenophora teres; 100 ppm a.i.): 25%

— patent US20170349550A1, “ACTIVE COMPOUND COMBINATIONS” (BAYER CROPSCIENCE AKTIENGESELLSCHAFT, priority 2014, published 2017)
